Where a SMILES comes first, the peptide text is derived from it. [ ]: non-standard residue; d: D form. The star is where a group is joined. AMC = Cc1cc(=O)oc2cc(N*)ccc12; Cha = N[CH](CC1CCCCC1)C(=O)O; MeOSuc = COC(=O)CCC(=O)*; Orn = NCCC[C@H](N)C(=O)O; Cbz = O=C(OCc1ccccc1)*; Boc = CC(C)(C)OC(=O)*; Ms = CS(=O)(=O)*
Columns and labels:
Set-up in all cases: scale not given: the % may be the effect or the level left
[1] = target: T1, Neutrophil elastase (Homo sapiens) (UniProt P08246); assay: Compound was evaluated for its inhibitory activity against elastase at 100 uM concentration of substrate
T1 sequence (whole entry): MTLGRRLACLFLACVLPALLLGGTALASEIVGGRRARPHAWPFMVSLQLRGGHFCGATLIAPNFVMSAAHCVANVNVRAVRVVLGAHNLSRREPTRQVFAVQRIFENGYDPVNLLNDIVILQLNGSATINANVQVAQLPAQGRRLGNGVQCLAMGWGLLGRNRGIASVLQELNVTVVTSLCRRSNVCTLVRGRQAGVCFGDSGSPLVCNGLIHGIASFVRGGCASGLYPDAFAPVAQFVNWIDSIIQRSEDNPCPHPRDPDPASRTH

[2] = target: Prothrombin (Homo sapiens) (UniProt P00734); assay: Compound was evaluated for its inhibitory activity against thrombin at 100 uM concentration of substrate
[3] = target: Urokinase-type plasminogen activator (Homo sapiens) (UniProt P00749); assay: Compound was evaluated for its inhibitory activity against urokinase at 100 uM concentration of substrate
[4] = target: Cathepsin B (Homo sapiens) (UniProt P07858); assay: Compound was evaluated for its inhibitory activity against cathepsin B at 100 uM concentration of substrate
[5] = target: Coagulation factor X (Homo sapiens) (UniProt P00742); assay: Compound was evaluated for its inhibitory activity against Coagulation factor X at 100 uM concentration of substrate
Sequence of Coagulation factor X (Homo sapiens) (P00742 41-179 limits assumed): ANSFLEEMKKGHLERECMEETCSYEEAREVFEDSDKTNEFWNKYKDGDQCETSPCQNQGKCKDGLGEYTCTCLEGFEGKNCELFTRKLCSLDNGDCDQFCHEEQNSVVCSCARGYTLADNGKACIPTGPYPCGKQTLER
Sequence of Coagulation factor X (Homo sapiens) (P00742 235-488 limits assumed): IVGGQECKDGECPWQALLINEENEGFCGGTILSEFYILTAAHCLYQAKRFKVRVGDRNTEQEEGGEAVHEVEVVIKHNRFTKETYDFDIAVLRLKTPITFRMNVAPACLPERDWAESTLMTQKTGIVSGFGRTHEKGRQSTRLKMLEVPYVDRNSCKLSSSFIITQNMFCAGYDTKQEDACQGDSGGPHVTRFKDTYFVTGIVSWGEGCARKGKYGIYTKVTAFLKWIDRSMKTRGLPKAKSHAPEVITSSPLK

For CC(=O)N[C@@H](Cc1ccccc1)C(=O)N1CCC[C@H]1C(=O)N[C@H](C(=O)Nc1ccc2c(C)cc(=O)oc2c1)C(C)C (Ac-Phe-Pro-Val-{AMC}), the Control [1] was 11%.
For CC(=O)N[C@@H](Cc1ccccc1)C(=O)N1CCC[C@H]1C(=O)NC(CCCN=C(N)N)C(=O)Nc1ccc2c(C)cc(=O)oc2c1 (stereo partly specified), the Control [2] was 5.4%.
In the case of CC(=O)N[C@@H](Cc1ccccc1)C(=O)N[C@@H](CCC(=O)O)C(=O)N[C@H](C(=O)Nc1ccc2c(C)cc(=O)oc2c1)C(C)C (Ac-Phe-Glu-Val-{AMC}), the Control [1] is reported as 1%.
For CC(=O)N[C@@H](Cc1ccccc1)C(=O)N[C@H](C(=O)N[C@H](C(=O)Nc1ccc2c(C)cc(=O)oc2c1)C(C)C)[C@@H](C)O (Ac-Phe-Thr-Val-{AMC}), the Control [1] was 1.6%.
In the case of CC(=O)NC(Cc1ccccc1)C(=O)NCC(=O)NC(CCCN=C(N)N)C(=O)Nc1ccc2c(C)cc(=O)oc2c1 (stereo not drawn) (Ac-Phe-Gly-Arg-{AMC}; configuration not given here), the Control [3] is reported as 3.9%.
CC(=O)N[C@@H](Cc1ccccc1)C(=O)N[C@@H](C)C(=O)N[C@@H](CCCN=C(N)N)C(=O)Nc1ccc2c(C)cc(=O)oc2c1 (Ac-Phe-Ala-Arg-{AMC}) was tested, and the Control [3] was 2%.
COC(=O)CCC(=O)N[C@@H](C)C(=O)N[C@@H](C)C(=O)N1CCC[C@H]1C(=O)N[C@H](C(=O)Nc1ccc2c(C)cc(=O)oc2c1)C(C)C (MeOSuc-AAPV-{AMC}) showed a Control [1] of 100%.
Work on CC(=O)N[C@@H](Cc1ccccc1)C(=O)N[C@H](C(=O)N[C@@H](CCCCN)C(=O)Nc1ccc2c(C)cc(=O)oc2c1)C(C)C (Ac-Phe-Val-Lys-{AMC}) yielded a Control [4] of 23%.
CC(=O)N[C@@H](Cc1ccccc1)C(=O)N[C@@H](CO)C(=O)N[C@@H](CCCN=C(N)N)C(=O)Nc1ccc2c(C)cc(=O)oc2c1 (Ac-Phe-Ser-Arg-{AMC}) gave a Control [3] of 4.2%.
Cc1cc(=O)oc2cc(NC(=O)C(CCCN=C(N)N)NC(=O)CNC(=O)C(CC3CCCCC3)NS(C)(=O)=O)ccc12 (stereo not drawn) (Ms-[Cha]-Gly-Arg-{AMC}; configuration not given here) showed a Control [5] of 100%.
With CC(=O)N[C@@H](Cc1ccccc1)C(=O)N[C@@H](CCCCN)C(=O)N[C@@H](CCCN=C(N)N)C(=O)Nc1ccc2c(C)cc(=O)oc2c1 (Ac-Phe-Lys-Arg-{AMC}) the Control [4] was 43%.
For CC(=O)N[C@@H](Cc1ccccc1)C(=O)N[C@@H](CCCN)C(=O)N[C@@H](CCCCN)C(=O)Nc1ccc2c(C)cc(=O)oc2c1 (Ac-Phe-[Orn]-Lys-{AMC}), the Control [4] was 21%.
CC(=O)N[C@@H](Cc1ccccc1)C(=O)N[C@@H](CCCN=C(N)N)C(=O)N[C@@H](CCCN=C(N)N)C(=O)Nc1ccc2c(C)cc(=O)oc2c1 (Ac-Phe-Arg-Arg-{AMC}) gave a Control [4] of 46%.
CC(=O)N[C@@H](Cc1ccccc1)C(=O)N[C@@H](CCCN)C(=O)N[C@@H](CCCN=C(N)N)C(=O)Nc1ccc2c(C)cc(=O)oc2c1 (Ac-Phe-[Orn]-Arg-{AMC}) showed a Control [4] of 18%.
CC(=O)N[C@@H](Cc1ccccc1)C(=O)N[C@@H](CCCN=C(N)N)C(=O)N[C@@H](CCCCN)C(=O)Nc1ccc2c(C)cc(=O)oc2c1 (Ac-Phe-Arg-Lys-{AMC}) showed a Control [4] of 37%.
Cc1cc(=O)oc2cc(NC(=O)[C@H](CCCN=C(N)N)NC(=O)[C@@H]3CCCN3C(=O)CNC(=O)OCc3ccccc3)ccc12 (Cbz-Gly-Pro-Arg-{AMC}) gave a Control [2] of 100%.
CC(=O)N[C@@H](Cc1ccccc1)C(=O)N[C@@H](Cc1ccc(O)cc1)C(=O)N[C@@H](CCCN=C(N)N)C(=O)Nc1ccc2c(C)cc(=O)oc2c1 (Ac-Phe-Tyr-Arg-{AMC}) gave a Control [5] of 1.1%.
CSCC[C@H](NC(=O)[C@H](Cc1ccccc1)NC(C)=O)C(=O)N[C@@H](CCCCN)C(=O)Nc1ccc2c(C)cc(=O)oc2c1 (Ac-Phe-Met-Lys-{AMC}) was tested, and the Control [4] was 18%.
Cc1cc(=O)oc2cc(NC(=O)C(CCCN=C(N)N)NC(=O)CNC(=O)C(N)CCC(=O)O)ccc12 (stereo not drawn) (H-Glu-Gly-Arg-{AMC}; configuration not given here) showed a Control [3] of 100%.
In the case of CC(=O)N[C@@H](Cc1ccccc1)C(=O)N1CCC[C@H]1C(=O)N[C@@H](C)C(=O)Nc1ccc2c(C)cc(=O)oc2c1 (Ac-Phe-Pro-Ala-{AMC}), the Control [1] is reported as 0.8%.
Cc1cc(=O)oc2cc(NC(=O)[C@H](CCCN=C(N)N)NC(=O)[C@H](CCCCN)NC(=O)[C@H](CC(C)C)NC(=O)OC(C)(C)C)ccc12 (Boc-Leu-Lys-Arg-{AMC}) showed a Control [4] of 100%.
